The results in this text go back to US6620807B1, “Pyridobenzodiazepine and pyridobenzoxazepine carboxyamide vasopressin agonists” (Wyeth, priority 1999, dated 2003).

The test concerns the target T1, Vasopressin V2 (Rattus norvegicus, UniProt Q00788).
T1 construct: Vasopressin V2 Agonist Effects of Test Compounds in Normal Conscious Water-loaded Rats; from tissue; host or cells: whole animal: conscious water-loaded Sprague-Dawley rats (V2 receptors of the kidney collecting ducts)
Put plainly: Vasopressin V2 agonist effects of test compounds in normal conscious water-loaded rats. Format: in vivo. The following applies: oral dose of 10 mg/Kg, water-loaded Sprague-Dawley (CD) rats; for Changes in Urinary Osmolality: osmolality changes expressed as percent of control, urine collected for four hours; for Urine Volume (% decrease): percent decrease in urine volume vs. control, urine collected for four hours after dosing. From the text:
Vasopressin V2 Agonist Effects of Test Compounds in Normal Conscious Water-loaded Rats:
Male or female normotensive Sprague-Dawley rats (Charles River Laboratories, Inc., Kingston, N.Y.) of 350-500 g body weight were supplied with standard rodent diet (Purina Rodent Lab. Chow 5001) and water ad libitum. On the day of test, rats were placed individually into metabolic cages equipped with devices to separate the feces from the urine and containers for collection of urine. A test compound or a reference agent was given at an oral dose of 10 mg/Kg in a volume of 10 mL/Kg. The vehicle used was 20% dimethylsulfoxide (DMSO) in 2.5% preboiled corn starch. Thirty minutes after dosing the test compound, rats were gavaged with water at 30 mL/Kg into the stomach using a feeding needle. During the test, rats were not provided with water or food. Urine was collected for four hours after dosing of the test compound. At the end of four hours, urine volume was measured. Urinary osmolality was determined using a Fiske One-Ten Osmometer (Fiske Associates, Norwood, Mass., 02062) or an Advanced CRYOMATIC Osmometer, Model 3C2 (Advanced Instruments, Norwood, Mass.). Determinations of Na^+, K^+ and Cl^− ion were carried out using ion specific electrodes in a Beckman SYNCHRON EL-ISE Electrolyte System analyzer. The urinary osmolality should increase proportionally. In the screening test, two rats were used for each compound. If the difference in the urine volume of the two rats was greater than 50%, a third rat was used.

Structures are written as SMILES.

T1 sequence (Q00788 whole entry): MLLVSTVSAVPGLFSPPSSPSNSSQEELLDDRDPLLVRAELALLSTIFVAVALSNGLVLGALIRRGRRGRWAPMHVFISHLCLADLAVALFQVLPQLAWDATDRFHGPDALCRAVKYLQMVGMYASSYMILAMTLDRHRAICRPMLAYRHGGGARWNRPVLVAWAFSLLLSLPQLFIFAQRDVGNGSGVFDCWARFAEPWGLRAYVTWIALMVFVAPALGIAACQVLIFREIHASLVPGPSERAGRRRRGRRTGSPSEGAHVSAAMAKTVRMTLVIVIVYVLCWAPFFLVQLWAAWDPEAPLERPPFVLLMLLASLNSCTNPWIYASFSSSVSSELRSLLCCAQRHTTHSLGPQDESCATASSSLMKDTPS

Take `Cn1ccc2cc(C(=O)N3Cc4cccnc4Nc4ccccc43)ccc21` [Example 1]: the “Changes in Urinary Osmolality” value was 159% of control and the “Urine Volume (% decrease)” value came out at 74 % decrease.

Turning to `O=C(c1ccc2c(c1)OCO2)N1Cc2cccnc2Nc2ccccc21` [Example 2, Benzo [1,3]Dioxol-5-yl-(5,11-dihydro-benzo[b]pyrido [2.3-e][1,4]Diazepin-6-yl)-mothanone], the “Changes in Urinary Osmolality” value was 247% of control and the “Urine Volume (% decrease)” value is recorded as 61 % decrease.

For `O=C(c1ccc2c(c1)CCO2)N1Cc2cccnc2Nc2ccccc21` [Example 3, (5,11-Dihydro-benzo[b]pyrido [2.3-e][1,4]Diazepin-6-yl)-(2,3-dihydro-benzofuran-5-yl)-methanone], the “Changes in Urinary Osmolality” value is listed as 54% of control and the “Urine Volume (% decrease)” value turned out to be 29 % decrease. Take `O=C(c1ccc2nonc2c1)N1Cc2cccnc2Nc2ccccc21` [Example 4, Benzo[1,2,5]oxadiazol-5-yl-(5,11-dihydro-benzo[b]pyrido [2.3-e][1,4]Diazepin-6-yl)-methanone]: the “Urine Volume (% decrease)” value came out at 13 % decrease. Take `O=C(c1ccc2ncsc2c1)N1Cc2cccnc2Nc2ccccc21` [Example 5]: the “Changes in Urinary Osmolality” value is reported as 78% of control and the “Urine Volume (% decrease)” value worked out at 31 % decrease. Consider `Cn1ccc2cc(C(=O)N3Cc4cccnc4Oc4ccccc43)ccc21` [Example 6], for which the “Changes in Urinary Osmolality” value is 35% of control and the “Urine Volume (% decrease)” value is given as 21 % decrease.
